Literature values in the PKSmart pharmacokinetics tables (Seal et al. 2025).

Tests used:
[1] = Lombardo et al. 2013, J Clin Pharmacol 53:178, doi 10.1177/0091270012440282; conditions: for Vd / clearance: in vivo, iv; for fraction unbound: plasma
[2] = Lombardo, Berellini, Obach 2018, Drug Metab Dispos 46:1466, doi 10.1124/dmd.118.082966; conditions: human; for MRT / Vd / clearance / half-life: in vivo, iv; for fraction unbound: plasma

Structure (SMILES)	Vd ([1]; rat) [L/kg]	clearance ([1]; rat) [mL/min/kg]	MRT [2] [h]	Vd [2] [L/kg]	clearance [2] [mL/min/kg]	half-life [2] [h]	Vd ([1]; dog) [L/kg]	clearance ([1]; dog) [mL/min/kg]	Vd ([1]; monkey) [L/kg]	clearance ([1]; monkey) [mL/min/kg]	fraction unbound ([1]; rat)	fraction unbound ([1]; monkey)	fraction unbound [2]	fraction unbound ([1]; dog)
COc1nc(C)nc(Cl)c1NC1=NCCN1	3.2	50.1	2.7	1.8	11	2.2								
Nc1[nH]c(=O)ncc1F			5.7	0.68	2	4.2	0.64	2.4						
CC(C)NCC(O)COc1ccc(COCCOC(C)C)cc1 (stereo unspecified)	1.4	13		2.4	3.7	10	3.5	7.9	3	12	0.85			
C#C[C@]1(O)CC[C@H]2[C@@H]3CCc4cc(O)ccc4[C@H]3CC[C@@]21C	5.7	55	11	4.3	7	9.7	17	25	7.2	36	0.0088	0.0099	0.014	
Cc1cc(=O)c(C(=O)NC(C(=O)NC2C(=O)N3C(C(=O)O)=C(CSc4nnnn4C)CS[C@H]23)c2ccc(O)cc2)c[nH]1 (stereo partly specified)	0.26	9.5	5.2	0.15	0.48	5.4	0.49	5.7	0.1	0.5	0.54	0.07	0.03	0.7
Cc1nnc2n1-c1sc(Br)cc1C(c1ccccc1Cl)=NC2	3	23	6	0.75	2	4.8	6.1	11	6.5	13	0.22		0.092	
CN(C)CCc1c[nH]c2ccc(CS(=O)(=O)N3CCCC3)cc12	2.7	55.8	4.2	2.2	8.9	3.4	3.98	28.5	2.61	40	0.72	0.699	0.6	0.73
CC(c1ncncc1F)[C@](O)(Cn1cncn1)c1ccc(F)cc1F (stereo partly specified)	1.78		4.4	2.2		5.6	0.88				0.44		0.42	0.49
C[C@@H]1CN(c2c(F)c(N)c3c(=O)c(C(=O)O)cn(C4CC4)c3c2F)C[C@H](C)N1	3.5	19.6	24	3.9	2.7	20					0.5			
CCOc1ccc(NC(C)=O)cc1			1.1	1.4		0.92	0.89	15.7					0.47	
CCN1CCN(C(=O)NC(C(=O)NC2C(=O)N3C(C(=O)O)C(C)(C)S[C@H]23)c2ccccc2)C(=O)C1=O (stereo partly specified)	0.39	17.7	1.1	0.27		0.96	0.24	6.6	0.26	7.2	0.61	0.95		0.84
CO[C@]12CC[C@@]3(C[C@@H]1[C@](C)(O)C(C)(C)C)[C@H]1Cc4ccc(O)c5c4[C@@]3(CCN1CC1CC1)[C@H]2O5	8.37	0.05				3.2								
NC1(C(=O)O)CC1	0.64	3.2	7.8	0.73	1.5	5.9	0.7	0.4	0.72	3.1				
CC(=O)CC(c1ccccc1)c1c(O)c2ccccc2oc1=O (stereo unspecified)	0.24	0.17	39	0.13			0.28	0.3			0.405			
COc1cccc2c1C(=O)c1c(O)c3c(c(O)c1C2=O)C[C@@](O)(C(=O)CO)C[C@@H]3O[C@H]1C[C@H](N)[C@H](O)[C@H](C)O1	5.5	32.4	24	22	15	32	31.6	7.93						
COc1cc([C@@H]2c3cc4c(cc3[C@@H](O[C@@H]3O[C@@H]5CO[C@@H](C)O[C@H]5[C@H](O)[C@H]3O)[C@H]3COC(=O)C23)OCO4)cc(OC)c1O (stereo partly specified)	0.58	23	6	0.18		5.7	1.4	13	0.16	1.5	0.43	0.0051		0.63
CN(Cc1cnc2nc(N)nc(N)c2n1)c1ccc(C(=O)NC(CCC(=O)O)C(=O)O)cc1 (stereo unspecified)			3.4	0.43	2.1						0.68			
CCOC(=O)C1[C@@H](OC(=O)c2ccccc2)C[C@@H]2CC[C@H]1N2C (stereo partly specified)			2	1.6	13	1.5	2.68	42.2					0.64	
NCC1(CC(=O)O)CCCCC1	1.1	9.1	7	0.71	1.7	5.3	0.16	2.3	0.65	2.3	0.02	0.02		
